From US8088930B2, “Benzimidazole derivatives” (Hoffmann-La Roche Inc., priority 2008, dated 2012)

Each molecule was assayed against T1, FXR ligand binding domain (GST-FXR LBD fusion protein, human FXR aa 193-473) (Homo sapiens, UniProt Q96RI1) (assay: Radioligand binding assay (scintillation proximity, radioligand displacement)). Settings: 40 nM GST-FXR LBD on SPA beads, test compound 6×10^−9 M to 2.5×10^−5 M, read-out: h-IC50 Binding.
T1 construct: fused on or other part: Glutathione-S-transferase (GST) fused N-terminally to the FXR LBD, used to capture the protein on glutathione SPA beads
T1 sequence (Q96RI1 211-486 limits assumed): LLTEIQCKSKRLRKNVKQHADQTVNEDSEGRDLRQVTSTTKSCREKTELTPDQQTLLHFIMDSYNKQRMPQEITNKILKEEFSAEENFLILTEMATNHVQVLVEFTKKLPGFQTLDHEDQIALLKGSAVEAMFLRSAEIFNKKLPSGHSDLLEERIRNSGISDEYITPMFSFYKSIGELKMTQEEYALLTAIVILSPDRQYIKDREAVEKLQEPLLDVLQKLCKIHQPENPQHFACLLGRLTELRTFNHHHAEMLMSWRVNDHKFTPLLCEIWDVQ
In short: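 40 nM GST-FXR LBD, E. coli-expressed, bound to glutathione yttrium silicate SPA beads in 50 mM Hepes pH 7.4, 10 mM NaCl, 5 mM MgCl2, 0.01% CHAPS. Test compounds displace radioligand (e.g. 20 nM benzimidazolyl-acetamide ligand); bound ligand measured by scintillation proximity counting.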

Question: How did the IC50 turn out when `CC(OCC(C1CCCCC1)n1c(-c2ccc(Cl)cc2)nc2cc(F)c(F)cc21)c1ccc(C(=O)O)cc1` (stereo not shown) [Example 79, 4-(1-{2-[2-(4-Chloro-phenyl)-5,6-difluoro-benzoimidazol-1-yl]-2-cyclohexyl-ethoxy}-ethyl)-benzoic acid] was run?
Answer: 600 nM

Question: For `O=C(O)c1ccc(OCC(C2CCCCC2)n2c(-c3ccc(Cl)cc3)nc3cc(F)c(F)cc32)nc1` (single isomer, unassigned; (+)) [Example 20, (+)-6-{2-[2-(4-Chloro-phenyl)-5,6-difluoro-benzoimidazol-1-yl]-2-cyclohexyl-ethoxy}-nicotinic acid], which IC50 is on record?
Answer: 30 nM

Question: Which IC50 does the source give for `O=C(O)c1cc(F)c(OCC(C2CCCCCC2)n2c(-c3ccc(Cl)cc3)nc3cc(F)c(F)cc32)c(F)c1` (single isomer, unassigned; (-)) [Example 132, (−)-4-{2-[2-(4-Chloro-phenyl)-5,6-difluoro-benzoimidazol-1-yl]-2-cycloheptyl-ethoxy}-3,5-difluoro-benzoic acid] here?
Answer: 10 nM

Question: Which IC50 does the source give for `Cc1nc(C(=O)O)ncc1OCC(C1CCCCC1)n1c(-c2ccc(Cl)cc2)nc2cc(F)c(F)cc21` (stereo not shown) [Example 25, 5-{2-[2-(4-Chloro-phenyl)-5,6-difluoro-benzoimidazol-1-yl]-2-cyclohexyl-ethoxy}-4-methyl-pyrimidine-2-carboxylic acid] here?
Answer: 800 nM

Question: For `COc1ccc(-c2nc3cc(F)c(F)cc3n2C(COc2ccc(C(=O)O)cn2)C2CCCCC2)c(OC)n1` (stereo not shown) [Example 73, 6-{2-Cyclohexyl-2-[2-(2,6-dimethoxy-pyridin-3-yl)-5,6-difluoro-benzoimidazol-1-yl]-ethoxy}-nicotinic acid], which IC50 is on record?
Answer: 100 nM

Question: With `Cc1cc(OCC(C2CCCCC2)n2c(-c3ccc(Cl)cc3)nc3cc(F)c(F)cc32)ccc1OCC(=O)O` (stereo not shown) [Example 92, (4-{2-[2-(4-Chloro-phenyl)-5,6-difluoro-benzoimidazol-1-yl]-2-cyclohexyl-ethoxy}-2-methyl-phenoxy)-acetic acid] as the molecule, how does the IC50 read?
Answer: 90 nM

Question: How did the IC50 turn out when `CC(C)(Oc1cccc(OCC(C2CCCCC2)n2c(-c3ccc(Cl)cc3)nc3cc(F)c(F)cc32)c1)C(=O)O` (stereo not shown) [Example 95, 2-(3-{2-[2-(4-Chloro-phenyl)-5,6-difluoro-benzoimidazol-1-yl]-2-cyclohexyl-ethoxy}-phenoxy)-2-methyl-propionic acid] was run?
Answer: 600 nM

Question: How did the IC50 turn out when `Cc1c(OCC(C2CCCCC2)n2c(-c3ccc(Cl)cc3)nc3cc(F)c(F)cc32)ccc(OC(C)(C)C(=O)O)c1C` (stereo not shown) [Example 93, 2-(4-{2-[2-(4-Chloro-phenyl)-5,6-difluoro-benzoimidazol-1-yl]-2-cyclohexyl-ethoxy}-2,3-dimethyl-phenoxy)-2-methyl-propionic acid] was run?
Answer: 300 nM

Question: Which IC50 does the source give for `O=C(O)c1ccc(OCC(C2CCCCC2)n2c(-c3ccc(Cl)cc3)nc3cc(F)c(F)cc32)cn1` (stereo not shown) [Example 18, 5-{2-[2-(4-Chloro-phenyl)-5,6-difluoro-benzoimidazol-1-yl]-2-cyclohexyl-ethoxy}-pyridine-2-carboxylic acid] here?
Answer: 1300 nM

Question: Which IC50 does the source give for `O=C(O)C1(Oc2ccc(OCC(C3CCCCC3)n3c(-c4ccc(Cl)cc4)nc4cc(F)c(F)cc43)cc2)CC1` (single isomer, unassigned; (-)) [Example 121, (−)-1-(4-{2-[2-(4-Chloro-phenyl)-5,6-difluoro-benzoimidazol-1-yl]-2-cyclohexyl-ethoxy}-phenoxy)-cyclopropanecarboxylic acid] here?
Answer: 20 nM

Question: How did the IC50 turn out when `Fc1cc2nc(-c3ccc(Cl)cc3)n(C(COc3ccccn3)C3CCCCC3)c2cc1F` (stereo not shown) [Example 29, 2-(4-Chloro-phenyl)-1-[1-cyclohexyl-2-(pyridin-2-yloxy)-ethyl]-5,6-difluoro-1H-benzoimidazole] was run?
Answer: 200 nM

Question: For `O=C(O)c1ccc(OCC(C2CCCCCC2)n2c(-c3ccc(Cl)cc3)nc3cc(F)c(F)cc32)nc1` (stereo not shown) [Example 130, 6-{2-[2-(4-Chloro-phenyl)-5,6-difluoro-benzoimidazol-1-yl]-2-cycloheptyl-ethoxy}-nicotinic acid], which IC50 is on record?
Answer: 300 nM

Question: `O=C(O)C1(Oc2ccc(OCC(C3CCCCC3)n3c(-c4ccc(Cl)cc4)nc4cc(F)c(F)cc43)nc2)CC1` (stereo not shown) [Example 50, 1-(6-{2-[2-(4-Chloro-phenyl)-5,6-difluoro-benzoimidazol-1-yl]-2-cyclohexyl-ethoxy}-pyridin-3-yloxy)-cyclopropanecarboxylic acid] was tested. Which IC50 did it give?
Answer: 100 nM

Question: Which IC50 does the source give for `O=C(O)c1ccc(CCC(C2CCCCC2)n2c(-c3ccccc3)nc3cc(F)c(F)cc32)cc1` (stereo not shown) [Example 142, 4-[3-Cyclohexyl-3-(5,6-difluoro-2-phenyl-benzoimidazol-1-yl)-propyl]-benzoic acid] here?
Answer: 5 nM

Question: Which IC50 does the source give for `Cc1cc(C(=O)O)cc(C)c1OCC(C1CCCCC1)n1c(-c2ccc(Cl)cc2)nc2ccccc21` (single isomer, unassigned; (+)) [Example 107, (+)-4-{2-[2-(4-Chloro-phenyl)-benzoimidazol-1-yl]-2-cyclohexyl-ethoxy}-3,5-dimethyl-benzoic acid] here?
Answer: 10 nM

Question: With `Cc1cc(C(=O)O)cc(C)c1OCC(C1CCCCC1)n1c(-c2ccc(Cl)cc2)nc2ccccc21` (stereo not shown) [Example 105, 4-{2-[2-(4-Chloro-phenyl)-benzoimidazol-1-yl]-2-cyclohexyl-ethoxy}-3,5-dimethyl-benzoic acid] as the molecule, how does the IC50 read?
Answer: 40 nM

Question: Which IC50 does the source give for `O=C(O)C1(Oc2ccc(OCC(C3CCCCC3)n3c(-c4ccc(Cl)cc4)nc4cc(F)c(F)cc43)cc2)CCC1` (stereo not shown) [Example 117, 1-(4-{2-[2-(4-Chloro-phenyl)-5,6-difluoro-benzoimidazol-1-yl]-2-cyclohexyl-ethoxy}-phenoxy)-cyclobutanecarboxylic acid] here?
Answer: 40 nM

Question: Which IC50 does the source give for `COc1ccc(-c2nc3cc(F)c(F)cc3n2C(COc2c(C)cc(-c3nnn[nH]3)cc2C)C2CCCCC2)c(OC)n1` (single isomer, unassigned; (-)) [Example 101, (−)-1-{1-Cyclohexyl-2-[2,6-dimethyl-4-(1H-tetrazol-5-yl)-phenoxy]-ethyl}-2-(2,6-dimethoxy-pyridin-3-yl)-5,6-difluoro-1H-benzoimidazole] here?
Answer: 0.2 nM

Question: How did the IC50 turn out when `CC(C)(Oc1ccc(OCC(C2CCCCC2)n2c(-c3ccc(Cl)cc3)nc3cc(F)c(F)cc32)nc1)C(=O)O` (single isomer, unassigned; (-)) [Example 49, (−)-2-(6-{2-[2-(4-Chloro-phenyl)-5,6-difluoro-benzoimidazol-1-yl]-2-cyclohexyl-ethoxy}-pyridin-3-yloxy)-2-methyl-propionic acid] was run?
Answer: 400 nM

Question: With `O=C(O)C1CCC(NCC(C2CCCCC2)n2c(-c3ccc(Cl)cc3)nc3cc(F)c(F)cc32)CC1` (single isomer, unassigned) [Example 137, (+) or (−)-4-{2-[2-(4-Chloro-phenyl)-5,6-difluoro-benzoimidazol-1-yl]-(2-cis-cyclohexyl-ethylamino}-cyclohexanecarboxylic acid] as the molecule, how does the IC50 read?
Answer: 6100 nM

Question: For `O=C(O)c1cnc(OCC(C2CCCCC2)n2c(-c3ccc(Cl)cc3)nc3cc(F)c(F)cc32)c2ccsc12` (single isomer, unassigned; (+)) [Example 27, (+)-4-{2-[2-(4-Chloro-phenyl)-5,6-difluoro-benzoimidazol-1-yl]-2-cyclohexyl-ethoxy}-thieno[3,2-c]pyridine-7-carboxylic acid], which IC50 is on record?
Answer: 300 nM

Question: `O=C(O)C1CCC(NCC(C2CCCCC2)n2c(-c3ccc(Cl)cc3)nc3cc(F)c(F)cc32)CC1` (single isomer, unassigned) [Example 138, (+) or (−)-4-{2-[2-(4-Chloro-phenyl)-5,6-difluoro-benzoimidazol-1-yl]-(2-trans-cyclohexyl-ethylamino}-cyclohexanecarboxylic acid] was tested. Which IC50 did it give?
Answer: 300 nM

Question: `Cc1cc(C(=O)O)cc(C)c1OCC(C1CCCCC1)n1c(-c2ccc(Cl)cc2)nc2cc(F)c(F)cc21` (single isomer, unassigned; (+)) [Example 54, (+)-4-{2-[2-(4-Chloro-phenyl)-5,6-difluoro-benzoimidazol-1-yl]-2-cyclohexyl-ethoxy}-3,5-dimethyl-benzoic acid] was tested. Which IC50 did it give?
Answer: 100 nM

Question: Which IC50 does the source give for `Cc1cc(-c2nnn[nH]2)cc(C)c1OCC(C1CCCCC1)n1c(-c2ccc(Cl)cc2)nc2ccccc21` (single isomer, unassigned; (-)) [Example 112, (−)-2-(4-Chloro-phenyl)-1-{1-cyclohexyl-2-[2,6-dimethyl-4-(1H-tetrazol-5-yl)-phenoxy]-ethyl}-1H-benzoimidazole] here?
Answer: 110 nM

Question: With `O=C(O)c1ccc(OCC(C2CCCCC2)n2c(-c3ccc(Cl)cc3)nc3cc(F)c(F)cc32)c(C(F)(F)F)c1` (single isomer, unassigned; (-)) [Example 41, (−)-4-{2-[2-(4-Chloro-phenyl)-5,6-difluoro-benzoimidazol-1-yl]-2-cyclohexyl-ethoxy}-3-trifluoromethyl-benzoic acid] as the molecule, how does the IC50 read?
Answer: 70 nM

Question: With `O=C(O)c1ccc(OCC(C2CCCCC2)n2c(-c3ccc(Cl)cc3)nc3ccccc32)c(F)c1` (stereo not shown) [Example 33, 4-{2-[2-(4-Chloro-phenyl)-benzoimidazol-1-yl]-2-cyclohexyl-ethoxy}-3-fluoro-benzoic acid] as the molecule, how does the IC50 read?
Answer: 500 nM

Question: For `O=C(O)c1cc(F)c(OCC(C2CCCCC2)n2c(-c3ccc(Cl)cc3)nc3ccccc32)c(Cl)c1` (single isomer, unassigned; (+)) [Example 110, (+)-3-Chloro-4-{2-[2-(4-chloro-phenyl)-benzoimidazol-1-yl]-2-cyclohexyl-ethoxy}-5-fluoro-benzoic acid], which IC50 is on record?
Answer: 60 nM

Question: With `O=C(O)c1ccc(COCC(C2CCCCC2)n2c(-c3ccc(Cl)cc3)nc3cc(F)c(F)cc32)cc1` (stereo not shown) [Example 58, 4-{2-[2-(4-Chloro-phenyl)-5,6-difluoro-benzoimidazol-1-yl]-2-cyclohexyl-ethoxymethyl}-benzoic acid] as the molecule, how does the IC50 read?
Answer: 100 nM
